Ki and Kb data for one compound are collected here from patent publication US9586962B2, “Disubstituted octahydropyrrolo [3,4-C] pyrroles as orexin receptor modulators” (Janssen Pharmaceutica NV, priority 2011, dated 2017).

For experiment [1], the target named is T1, human orexin 2 receptor (Homo sapiens (Human), UniProt O43614). In words: Human orexin 2 receptor radioligand binding ([3H]EMPA competition, HEK293 cells). As to conditions: HEK293 cells expressing human orexin-2 receptor, read-out: OR 2 Ki.
T1 sequence (O43614 whole entry): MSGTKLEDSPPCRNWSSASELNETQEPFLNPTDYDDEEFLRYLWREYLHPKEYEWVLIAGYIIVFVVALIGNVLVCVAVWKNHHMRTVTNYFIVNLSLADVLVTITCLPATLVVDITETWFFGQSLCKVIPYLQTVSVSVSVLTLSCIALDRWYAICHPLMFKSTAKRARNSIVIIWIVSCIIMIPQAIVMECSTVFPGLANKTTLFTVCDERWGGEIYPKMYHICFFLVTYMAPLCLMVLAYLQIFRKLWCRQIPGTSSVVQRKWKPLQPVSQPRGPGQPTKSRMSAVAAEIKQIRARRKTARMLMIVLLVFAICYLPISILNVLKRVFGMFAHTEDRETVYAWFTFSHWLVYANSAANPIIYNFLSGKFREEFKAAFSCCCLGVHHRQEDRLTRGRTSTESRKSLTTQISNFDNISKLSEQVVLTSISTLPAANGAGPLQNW
Experiment [2] deals with T1, human orexin 2 receptor. As to the kind of experiment: Human orexin 2 receptor Ca2+ mobilization assay (FLIPR, PFSK cells, orexin B 100 nM). The class given is cell-based. As to conditions: modified Cheng-Prusoff correction, read-out: OR 2 Kb. In general terms: Calcium flux is commonly read through the fluorescence of an indicator in the cells.

As a reminder, the Ki is a dissociation constant, usually derived from enzyme kinetics or from competition with a known ligand. Take `Cc1noc(-c2c(F)cccc2C(=O)N2CC3CN(c4ncc(F)c(C)n4)CC3C2)n1` (centres unmarked) [Example 440, 2-{[3-Fluoro-2-(3-methyl-1,2,4-oxadiazol-5-yl)phenyl]carbonyl}-5-(5-fluoro-4-methylpyrimidin-2-yl)octahydropyrrolo[3,4-c]pyrrole]: the Ki on human orexin 2 receptor [1] was 64 nM. The Kb at human orexin 2 receptor [2] is 15 nM.
